{"source": "paper PMC12007624", "about": "(Open Forum Infectious Diseases, 2025)", "key": {"[1]": {"assay": "Pharmacokinetics of immunosuppressants before and 2 weeks after ART switch", "assay_type": "in vivo, human", "settings": "for AUC % Change / Cmax % Change / Cmin % Change: after vs before ART switch, P > .05"}, "[2]": {"assay": "Pharmacokinetics of RAL before and DTG after switch to DTG-based ART", "assay_type": "in vivo, human", "settings": "SOT recipients receiving immunosuppressants"}, "[3]": {"system": "renal organic cation transporter OCT2", "settings": "renal tubules; interferes with creatinine clearance; cited from earlier work"}, "[4]": {"system": "multidrug and toxin extrusion transporter MATE1", "settings": "renal tubules; cited from earlier work"}}, "data": [{"smiles": "COc1c(C)c2c(c(O)c1C/C=C(\\C)CCC(=O)O)C(=O)OC2", "note": "[Mycophenolic Acid, mycophenolic acid]", "values": [{"measurement": "Cmin", "setting": "[1]; After ART switch (2 weeks on DTG-based ART), plasma, median (IQR)", "result": "2.9 (1.7, 4) µg/mL"}, {"measurement": "Cmin", "setting": "[1]; Before ART switch (RAL-based ART), plasma, median (IQR)", "result": "1.9 (1.5, 2.5) µg/mL"}, {"measurement": "AUC % Change", "setting": "[1]", "result": 16, "unit": "%"}, {"measurement": "Cmax % Change", "setting": "[1]", "result": 63, "unit": "%"}, {"measurement": "Cmin % Change", "setting": "[1]", "result": 53, "unit": "%"}, {"measurement": "AUC % Change", "setting": "[1]; listed as mycophenolic acid", "result": "+16%"}, {"measurement": "Cmax % Change", "setting": "[1]; listed as mycophenolic acid", "result": "+63%"}, {"measurement": "Cmin % Change", "setting": "[1]; listed as mycophenolic acid", "result": "+53%"}]}, {"smiles": "C=CC[C@@H]1/C=C(\\C)C[C@H](C)C[C@H](OC)[C@H]2O[C@@](O)(C(=O)C(=O)N3CCCC[C@H]3C(=O)O[C@H](/C(C)=C/[C@@H]3CC[C@@H](O)[C@H](OC)C3)[C@H](C)[C@@H](O)CC1=O)[C@H](C)C[C@@H]2OC", "note": "[Tacrolimus, tacrolimus]", "values": [{"measurement": "Cmin", "setting": "[1]; After ART switch (2 weeks on DTG-based ART), blood, median (IQR)", "result": "4.4 (4.3, 8.5) ng/mL"}, {"measurement": "Tmax", "setting": "[1]; After ART switch (2 weeks on DTG-based ART), median (IQR)", "result": "2 (1, 2) h"}, {"measurement": "Cmin", "setting": "[1]; Before ART switch (RAL-based ART), blood, median (IQR)", "result": "6.2 (5.2, 8.9) ng/mL"}, {"measurement": "AUC % Change", "setting": "[1]", "result": "−9", "unit": "%"}, {"measurement": "Cmax % Change", "setting": "[1]", "result": 14, "unit": "%"}, {"measurement": "Cmin % Change", "setting": "[1]", "result": "−29", "unit": "%"}, {"measurement": "Cmax % Change", "setting": "[1]; listed as tacrolimus", "result": "+14%"}]}, {"smiles": "Cc1nnc(C(=O)NC(C)(C)c2nc(C(=O)NCc3ccc(F)cc3)c(O)c(=O)n2C)o1", "note": "[RAL, Raltegravir]", "values": [{"measurement": "plasma levels versus normal range", "setting": "[2]", "result": "in the normal range"}]}, {"smiles": "C[C@@H]1CCO[C@H]2Cn3cc(C(=O)NCc4ccc(F)cc4F)c(=O)c(O)c3C(=O)N12", "note": "[DTG, Dolutegravir]", "values": [{"measurement": "effect on OCT2", "setting": "[3]", "result": "inhibits"}, {"measurement": "plasma levels versus normal range", "setting": "[2]", "result": "in the normal range"}, {"measurement": "effect on MATE1", "setting": "[4]", "result": "potentially"}]}]}
